# Measured values published in patent US20070243577A1, “Method for the detection of apoptosis by determining apoptosis-specific markers released into an extracellular medium through cellular release mechanisms” (Evotec OAI AG, priority 2000, published 2007).
# How the values were obtained:
# Jurkat cells [1] = experiment: Extracellular release of cytochrome c into cell culture medium (immunoprecipitation and immunoblot); format: cell-based, human; conditions: for cytochrome c in the cell culture medium: 16 h, anti-CD95 mAb 1 μg/ml, etoposide 25 μg/ml, doxorubicin 2 μg/ml
# Experimental: 5×10^6 Jurkat cells were cultured in growth medium and either left untreated (control) or stimulated for 16 h with staurosporine (stauro, 2.5 μM), anti-CD95 mAb (α-CD95, 1 μg/ml), etoposide (etopo, 25 μg/ml) or doxorubicin (doxo, 2 μg/ml). Cytochrome c was precipitated from the cell culture medium (m) and the cellular extracts (c) with antibodies against the native molecule. The immunoprecipitated material was separated by SDS-PAGE and analysed by immunoblotting.
# 5×10^6 Jurkat cells were cultured in growth medium and stimulated for 15 h with the indicated concentrations of anti-CD95 mAb and staurosporine or for 24 h with the indicated concentrations of etoposide or doxorubicin. Cytochrome c was precipitated from the culture medium (m) and the cellular extracts (c) with antibodies against the native molecule. The immunoprecipitated material was separated by SDS-PAGE and analysed by immunoblotting. The quantity of cytochrome c was determined by densitometric analysis. The graphs display the amount of cytochrome c in the culture medium relative to the total amount of cytochrome c present in medium and cells.
# 1×10^6 Jurkat cells were incubated with medium or staurosporine (stauro, 2.5 μM) and harvested after is the indicated time points (+). A cell culture sample prior to applying staurosporine and a cell culture sample after 15 h without the addition of staurosporine are shown for intercomparison (−). Release of cytochrome c was determined by immunoprecipitation of the medium fractions and subsequent immunoblotting. […] The amounts of cytochrome c in the supernatants indicate the absolute densitometric values.
# The human Jurkat T-cell line and mouse L929 fibroblasts were grown at 37° C., 5% CO2, in RPMI-1640 medium supplemented with 10% heat-inactivated fetal calf serum, penicillin and streptomycin (all from GIBCO BRL). Etoposide, actinomycin D and doxorubicin were purchased from Sigma and staurosporine from Roche Diagnostics. All stimuli were dissolved in ethanol and kept at −70° C.
# Jurkat cells [2] = experiment: LDH activity in the supernatant; format: cell-based, human; conditions: staurosporine 2.5 μM, 15 hours
# Experimental: 1×10^6 Jurkat cells were incubated with medium or staurosporine (stauro, 2.5 μM) and harvested after is the indicated time points (+). A cell culture sample prior to applying staurosporine and a cell culture sample after 15 h without the addition of staurosporine are shown for intercomparison (−). Release of cytochrome c was determined by immunoprecipitation of the medium fractions and subsequent immunoblotting. Heavy; and light chain of anti-cytochrome c antibody and cytochrome c are indicated by open and closed arrowheads, respectively. The LDH activity in the supernatant of apoptotic cells represents the percentage of total LDH activity in the sample. The amounts of cytochrome c in the supernatants indicate the absolute densitometric values. The release of cytochrome c from the cell is a rapid process. Already one hour after apoptosis induction with staurosporine cytochrome c could be detected in the extracellular medium. […] Only about 20% of the total LDH were detected in the supernatants of apoptotic cells after 15 hours of staurosporine treatment.
# Cell viability was also determined by monitoring the release of the cytoplasmic enzyme lactate dehydrogenase (LDH), an indicator for cell death. In order to obtain total LDH activity, cells were lysed with 1% Triton X-100. […]
# Jurkat cells [3] = experiment: Measurement of cell death by flow cytometry (hypodiploid nuclei, PI uptake); format: cell-based, human
# Experimental: The percentage of apoptotic hypodiploid cells is shown on the right of the histograms. […] 1×10^6 Jurkat cells were incubated with medium or staurosporine (stauro, 2.5 μM) and harvested after the indicated time points.
# Also shown is the detection of cell death by PI (propidium iodide) uptake and of apoptosis by detecting hypodiploid nuclei, both by flow cytometry. The percentage of dead cells or apoptotic hypodiploid cells is shown on the right of the histograms. 1×10^6 cells were cultured in normal growth medium (control), or in the presence of staurbsporine (stauro, 2.5 μM) or the indicated concentrations of H2O2 for 18 h. […] As also shown, cell death was detected by PI (propidium iodide) uptake and apoptosis by detecting hypodiploid nuclei, both by flow cytometry.
# L929 cells [4] = experiment: Extracellular release of cytochrome c into cell culture medium (immunoprecipitation and immunoblot); format: cell-based, mouse; conditions: TNF-α 10 ng/ml plus actinomycin D 1 μg/ml in presence of zVAD-fmk 100 μM, 8 h
# Experimental: 3×10^6 L929 cells were incubated with medium or with TNF-α (10 ng/ml) plus actinomycin D (Act. D, 1 μg/ml) in the absence or presence of the caspase inhibitor zVAD-fmk (benzyloxycarbonyl-Val-Ala-Asp-fluoromethylketone, zVAD, 100 μM) for 8 h. The release of cytochrome c was determined by immunoprecipitation of culture medium (m) and for intercomparison of corresponding cellular extracts (c) and subsequent immunoblotting. Heavy and light chain of the anti-cytochrome c antibody and cytochrome c are indicated by open and closed arrowheads, respectively.
# The human Jurkat T-cell line and mouse L929 fibroblasts were grown at 37° C., 5% CO2, in RPMI-1640 medium supplemented with 10% heat-inactivated fetal calf serum, penicillin and streptomycin (all from GIBCO BRL). […] The broad-range caspase inhibitor benzyloxycarbonyl-Val-Ala-Asp-fluoromethylketone (zVAD-fmk) was purchased from Enzyme Systems (Dublin, Calif.); all other chemicals were from Merck KG or Roth GmbH.
# To determine the cellular cytochrome c content, cells were collected by centrifugation, washed in cold PBS and extracted in cold lysis buffer (50 mM Tris, pH 7.4, 150 mM NaCl, 1% Triton-X100 containing 3 μg/ml aprotinin, 3 μg/ml leupeptin, 3 μg/ml pepstatin and 2 mM PMSF). […] The amount of immunoprecipitated cytochrome c was determined by densitometric analysis using the NIH image software (National Institutes of Health).
# L929 cells [5] = experiment: Measurement of cell death by flow cytometry (hypodiploid nuclei, PI uptake); format: cell-based, mouse; conditions: TNF-α 10 ng/ml plus actinomycin D 1 μg/ml in presence of zVAD-fmk 100 μM, 8 h
# Experimental: Also shown is the detection of cell death by PI (propidium iodide) uptake and of apoptosis by detecting hypodiploid nuclei, both by flow cytometry. The percentage of dead cells or apoptotic hypodiploid cells is shown on the right of the histograms. 3×10^6 L929 cells were incubated with medium or with TNF-α (10 ng/ml) plus actinomycin D (Act. D, 1 μg/ml) in the absence or presence of the caspase inhibitor zVAD-fmk (benzyloxycarbonyl-Val-Ala-Asp-fluoromethylketone, zVAD, 100 μM) for 8 h. The release of cytochrome c was determined by immunoprecipitation of culture medium (m) and for intercomparison of corresponding cellular extracts (c) and subsequent immunoblotting. […] As also shown, cell death was detected by PI (propidium iodide) uptake and apoptosis by detecting hypodiploid nuclei, both by flow cytometry. […]
# For determination of apoptosis, Jurkat and L929 cells were seeded in microtiter plates and treated with the cytotoxic agents for the indicated time periods. […] Briefly, apoptotic nuclei were prepared by lysing cells in a hypotonic lysis buffer (1% sodium citrate, 0.1% Triton X-100, 50 μg/ml propidium iodide) and subsequently analysed by flow cytometry. In parallel, cell death as assessed by membrane damage was determined by the uptake of propidium iodide (PI, 2 μg/ml in PBS; Sigma) into non-fixed cells. […]
# [6] = Jurkat cells, staurosporine 2.5 μM
# [7] = Jurkat T-cells, 100 μM and 250 μM, 18 h
compound,measurement,setting,value
CN[C@@H]1C[C@H]2O[C@@](C)([C@@H]1OC)n1c3ccccc3c3c4c(c5c6ccccc6n2c5c31)C(=O)NC4 [staurosporine],cytochrome c in the cell culture medium,Jurkat cells [1]; [6],large amounts of cytochrome c
same,time at which cytochrome c could be detected in the extracellular medium,Jurkat cells [1]; [6],one hour
same,"LDH detected in the supernatants, percentage of total LDH",Jurkat cells [2],about 20%
same,time until formation of hypodiploid nuclei after triggering apoptosis,Jurkat cells [3]; [6],≥ 5 h
COc1cc([C@@H]2c3cc4c(cc3[C@@H](O[C@@H]3O[C@@H]5CO[C@@H](C)O[C@H]5[C@H](O)[C@H]3O)[C@H]3COC(=O)[C@H]23)OCO4)cc(OC)c1O [etoposide],cytochrome c in the cell culture medium,Jurkat cells [1]; [6],large amounts of cytochrome c
benzyloxycarbonyl-Val-Ala-Asp-fluoromethylketone [zVAD-fmk],extracellular cytochrome c release,L929 cells [4],not during necrotic cell death
same,"mode of cell death (hypodiploid nuclei, PI uptake)",L929 cells [5],resulted in necrosis
OO [hydrogen peroxide],cytochrome c release into the extracellular cell culture medium,Jurkat cells [1]; [7],no cytochrome c release
same,"mode of cell death (PI uptake, hypodiploid nuclei)",Jurkat cells [3]; [7],induced necrotic death
COc1cccc2c1C(=O)c1c(O)c3c(c(O)c1C2=O)C[C@@](O)(C(=O)CO)C[C@@H]3O[C@H]1C[C@H](N)[C@H](O)[C@H](C)O1 [doxorubicin],cytochrome c in the cell culture medium,Jurkat cells [1]; [6],large amounts of cytochrome c
